Like-named read-outs stand apart in the source and are kept apart here.
Columns and labels:
Experiment in all cases: cell-based
[1] = biological target: T1, CAT1 (cationic amino acid transporter 1, CAT1/SLC7A1) (Homo sapiens, UniProt P30825); parameters: species or system HEK-CAT1 (HEK293 stably transfected); Inhibition of net CAT1-mediated [3H]-ADMA (1 uM) uptake, 2.5 min, scintillation counting, vector control subtracted; settings: HEK293, ADMA 1 uM as substrate; for inhibition at 20 µM: read-out: % Inhibition of ADMA uptake at 20 µM; for inhibition at 200 µM: read-out: % Inhibition of ADMA uptake at 200 µM
T1 construct: full-length human transporter stably transfected in HEK cells (HEK-CAT1); net uptake against HEK-VC vector control cells
T1 sequence (P30825 whole entry): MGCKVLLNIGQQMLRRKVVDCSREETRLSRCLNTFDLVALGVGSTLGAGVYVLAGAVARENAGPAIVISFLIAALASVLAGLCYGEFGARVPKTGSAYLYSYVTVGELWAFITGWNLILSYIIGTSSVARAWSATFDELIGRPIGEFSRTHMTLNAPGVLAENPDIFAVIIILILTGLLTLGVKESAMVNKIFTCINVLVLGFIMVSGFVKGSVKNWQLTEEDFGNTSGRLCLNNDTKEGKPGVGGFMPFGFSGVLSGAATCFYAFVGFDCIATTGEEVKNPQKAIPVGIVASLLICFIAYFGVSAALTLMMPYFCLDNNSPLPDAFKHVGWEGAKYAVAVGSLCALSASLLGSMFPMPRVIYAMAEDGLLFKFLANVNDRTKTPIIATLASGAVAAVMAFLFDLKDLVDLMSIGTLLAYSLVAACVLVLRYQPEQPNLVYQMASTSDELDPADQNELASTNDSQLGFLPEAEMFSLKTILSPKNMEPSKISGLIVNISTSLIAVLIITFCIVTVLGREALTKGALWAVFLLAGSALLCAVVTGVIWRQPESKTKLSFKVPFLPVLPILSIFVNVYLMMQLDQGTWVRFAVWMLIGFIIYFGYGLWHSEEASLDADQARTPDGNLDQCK
Outline: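 HEK cells expressing CAT1 and vector-control cells took up [^3H]-L-arginine for 5 min, or [^3H]-L-homoarginine or [^3H]-ADMA (1 μM) for 2.5 min, with or without drug at 20 or 200 µM. Net CAT1 uptake was CAT1 cells minus control cells, and inhibition (%) = 100 − V/V0×100. Negative values mean stimulation; n = 6–9.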

[2] = biological target: T1, CAT1 (cationic amino acid transporter 1, CAT1/SLC7A1); parameters: species or system HEK-CAT1 (HEK293 stably transfected); Inhibition of net CAT1-mediated [3H]-L-homoarginine (1 uM) uptake, 2.5 min, scintillation counting, vector control subtracted; settings: HEK293, L-homoarginine 1 uM as substrate; for inhibition at 20 µM: read-out: % Inhibition of L-homoarginine uptake at 20 µM; for inhibition at 200 µM: read-out: % Inhibition of L-homoarginine uptake at 200 µM
Outline: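 HEK-CAT1 cells with HEK-VC vector controls; [3H]-L-homoarginine (1 μM) uptake over 2.5 min with or without test compound at 20 µM or 200 µM. Net CAT1 uptake (CAT1 minus VC) gives inhibition (%) = 100 – (V/V0 × 100). Negative values mean stimulated uptake; n = 6–9 from at least two independent experiments.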

[3] = biological target: T1, CAT1 (cationic amino acid transporter 1, CAT1/SLC7A1); parameters: species or system HEK-CAT1 (HEK293 stably transfected); Inhibition of net CAT1-mediated [3H]-L-arginine (100 uM) uptake, 5 min, scintillation counting, vector control subtracted; settings: HEK293, L-arginine 100 uM as substrate; for inhibition at 20 µM: read-out: % Inhibition of L-arginine uptake at 20 µM; for inhibition at 200 µM: read-out: % Inhibition of L-arginine uptake at 200 µM
Outline: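 HEK-CAT1 and vector-control HEK-VC cells took up [3H]-L-arginine (100 μM) for 5 min, with or without drug at 20 or 200 µM; [3H]-L-homoarginine or [3H]-ADMA uptake ran 2.5 min. Net uptake is CAT1 minus VC cells, and inhibition (%) = 100 − (V/V0 × 100). Negative values mean stimulated uptake.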

SMILES | inhibition at 20 µM [1] [%] | inhibition at 200 µM [1] [%] | inhibition at 20 µM [2] [%] | inhibition at 200 µM [2] [%] | inhibition at 20 µM [3] [%] | inhibition at 200 µM [3] [%]
CNCCC(Oc1ccc(C(F)(F)F)cc1)c1ccccc1 (stereo not drawn) [Fluoxetine] | -2.4 ± 2 | -18.8 ± 7.8 | -4.4 ± 5.2 | 25.6 ± 1.2 | 46.5 ± 8.5 | 26 ± 1.5
COc1ccc(Cl)cc1C(=O)NCCc1ccc(S(=O)(=O)NC(=O)NC2CCCCC2)cc1 [Glibenclamide] | 16.8 ± 2.5 | 8.1 ± 2.1 | 12.4 ± 2.8 | 10.1 ± 3 | 13.9 ± 3.4 | 14 ± 9.6
NS(=O)(=O)c1cc2c(cc1Cl)NCNS2(=O)=O [Hydrochlorothiazide] | 5.5 ± 2.2 | 9.9 ± 3.5 | 8.5 ± 4.8 | 7.9 ± 1.2 | 6 ± 3.9 | 20.7 ± 14.1
C[C@]12CCC(=O)C=C1CC[C@@H]1[C@@H]2[C@@H](O)C[C@@]2(C)[C@H]1CC[C@]2(O)C(=O)CO [Hydrocortisone] | -0.1 ± 2.8 | -9.9 ± 2.7 | 13.9 ± 9.6 | -9.5 ± 2.6 | 8.5 ± 4.8 | -4.3 ± 2.7
CC(C)Cc1ccc(C(C)C(=O)O)cc1 (stereo not drawn) [Ibuprofen] | -20.2 ± 5.9 | -44.8 ± 7.4 | -7.5 ± 2.1 | -26.1 ± 0.6 | -5.1 ± 3.6 | -33.7 ± 1.4
Cc1ccc(NC(=O)c2ccc(CN3CCN(C)CC3)cc2)cc1Nc1nccc(-c2cccnc2)n1 [Imatinib] | 11.2 ± 3.4 | 20.7 ± 14.1 | -24.9 ± 2.1 | -20.9 ± 1.1 | -8.2 ± 5.2 | -42.8 ± 0.3
c1c[nH]cn1 [Imidazole] | -4.7 ± 2.1 | 20.7 ± 14.1 | -3.2 ± 2 | -10.8 ± 1.6 | -6.3 ± 5.9 | -8.5 ± 1.5
CN(C)CCCN1c2ccccc2CCc2ccccc21 [Imipramine] | -4.3 ± 2.1 | 14.1 ± 4.1 | -3.1 ± 1.6 | 15 ± 2.1 | 0.08 ± 4.8 | 22.6 ± 5.7
CN1CCC(=C2c3ccccc3CC(=O)c3sccc32)CC1 [Ketotifen] | 6.4 ± 4.4 | 1.4 ± 9.6 | 7 ± 4.2 | 10.9 ± 2.6 | 23.9 ± 0.8 | 9.9 ± 8.2
Nc1ccn([C@@H]2CS[C@H](CO)O2)c(=O)n1 [Lamivudine] | -5.3 ± 4 | 22.9 ± 4.9 | -3.4 ± 0.3 | -3.1 ± 1.4 | 27.4 ± 4.6 | -3.9 ± 4.6
c1ccc([C@H]2CN3CCSC3=N2)cc1 [Levamisole] | 18.9 ± 12.5 | -34.3 ± 2.4 | 19.6 ± 11.8 | -15.9 ± 3.8 | -18.4 ± 6.9 | -17.2 ± 5.1
N[C@@H](Cc1ccc(O)c(O)c1)C(=O)O [Levodopa] | 28.1 ± 0.9 | -6 ± 0.5 | 8.2 ± 3 | 30.4 ± 0.2 | 8.1 ± 3.1 | 31.4 ± 0.6
NCCCC[C@H](N[C@@H](CCc1ccccc1)C(=O)O)C(=O)N1CCC[C@H]1C(=O)O [Lisinopril] | 1.6 ± 1.9 | 15.7 ± 0.8 | 6.4 ± 3.1 | -11.4 ± 3.8 | 4.6 ± 3.8 | -12.6 ± 5
CN(C)C(=O)C(CCN1CCC(O)(c2ccc(Cl)cc2)CC1)(c1ccccc1)c1ccccc1 [Loperamide] | 17.6 ± 1.6 | 1.4 ± 2.1 | 18.9 ± 0.2 | -2.7 ± 3.9 | 16.9 ± 2.3 | -3.6 ± 2.1
CCCCc1nc(Cl)c(CO)n1Cc1ccc(-c2ccccc2-c2nnn[nH]2)cc1 [Losartan] | 7 ± 3.8 | 12.9 ± 4.1 | 11 ± 0.5 | -27.1 ± 2 | 13.5 ± 1.7 | -34.8 ± 1.4
CC12CC3CC(C)(C1)CC(N)(C3)C2 [Memantine] | 14.8 ± 2.6 | -9.6 ± 1.8 | -3.9 ± 3.4 | -16.6 ± 0.8 | -3.2 ± 3.9 | -21.7 ± 5.1
C[C@@H](O)[C@H]1C(=O)N2C(C(=O)O)=C(S[C@@H]3CN[C@H](C(=O)N(C)C)C3)[C@H](C)[C@H]12 [Meropenem] | 0.1 ± 3.2 | 12.1 ± 5.1 | -19.3 ± 9.1 | -13.6 ± 4.6 | -19.1 ± 9.3 | -13.4 ± 4.9
CN(C)C(=N)NC(=N)N [Metformin] | -8 ± 4.3 | -8.4 ± 3.1 | -20.4 ± 13.7 | -18.8 ± 1.3 | -20.7 ± 14.1 | -23.1 ± 1.4
CN(Cc1cnc2nc(N)nc(N)c2n1)c1ccc(C(=O)N[C@@H](CCC(=O)O)C(=O)O)cc1 [Methotrexate] | 5.4 ± 4.3 | 9.9 ± 4.5 | 19.5 ± 1 | -6.8 ± 0.9 | 22.3 ± 0.8 | -7.1 ± 2.1
COc1ccc(OC)c(C(O)C(C)N)c1 (stereo not drawn) [Methoxamine] | 0.7 ± 11.9 | 1.8 ± 0.9 | 0.7 ± 11.9 | -23.9 ± 2.1 | 24.5 ± 10.5 | -23.9 ± 3.7
CCN(CC)CCNC(=O)c1cc(Cl)c(N)cc1OC [Metoclopramide] | -3.2 ± 2.1 | 4.2 ± 9.4 | -6.3 ± 1.4 | 1.4 ± 3.2 | 7.5 ± 2.1 | 2.5 ± 3.5
COCCc1ccc(OCC(O)CNC(C)C)cc1 (stereo not drawn) [Metoprolol] | -15.1 ± 7.1 | 19.8 ± 4.1 | -21.4 ± 3.7 | 0.3 ± 2.5 | 8.1 ± 6.7 | 1.3 ± 3.8
Cc1ncc([N+](=O)[O-])n1CCO [Metronidazole] | -3.1 ± 2 | -16.6 ± 0.4 | -4.7 ± 2 | 0.8 ± 2.2 | 7.7 ± 1.9 | 2.6 ± 3.7
CC#C[C@]1(O)CC[C@H]2[C@@H]3CCC4=CC(=O)CCC4=C3[C@@H](c3ccc(N(C)C)cc3)C[C@@]21C [Mifepristone] | 8.1 ± 11.4 | 5.6 ± 3.7 | 8.5 ± 11.1 | -15 ± 1.6 | 24.6 ± 0.6 | -19.9 ± 4.4
CN1CCOC(c2ccccc2)c2ccccc2C1 (stereo not drawn) [Nefopam] | -3.2 ± 0.4 | 32.6 ± 3.7 | -8.3 ± 1.6 | -11.6 ± 3.2 | -17.2 ± 10.5 | -13.9 ± 5.1
CCOC(=O)C1=C(C)NC(C)=C(C(=O)OC)C1c1cccc([N+](=O)[O-])c1 (stereo not drawn) [Nitrendipine] | 3.2 ± 9.5 | 30.4 ± 0.8 | 3.4 ± 8.7 | 15.2 ± 4.5 | -1.5 ± 7.1 | 26.1 ± 8.1
C#C[C@]1(O)CC[C@H]2[C@@H]3CCC4=CC(=O)CC[C@@H]4[C@H]3CC[C@@]21C [Norethindrone] | -3.8 ± 1.6 | -3.1 ± 0.5 | 23.5 ± 4 | -12.8 ± 9.6 | 26.9 ± 5 | -19.7 ± 3.3
CCCc1nc(C(C)(C)O)c(C(=O)O)n1Cc1ccc(-c2ccccc2-c2nnn[nH]2)cc1 [Olmesartan] | -13.2 ± 1.9 | -7.7 ± 3.5 | 3 ± 2.3 | -13.7 ± 5.1 | 2.8 ± 2.3 | -32.8 ± 1.4
Cc1nccn1CC1CCc2c(c3ccccc3n2C)C1=O (stereo not drawn) [Ondansetron] | -0.4 ± 5.9 | 10.1 ± 2.3 | -0.5 ± 5.9 | -8.3 ± 1.6 | 8.8 ± 7.9 | -5.7 ± 4.1
OCCN1CCN(CCCN2c3ccccc3C=Cc3ccccc32)CC1 [Opipramol] | -13.4 ± 3.7 | -1 ± 4.5 | -16.8 ± 3.4 | 29.5 ± 2.7 | 22.3 ± 1.8 | 29.2 ± 2.7
